Data: patent publication US6214821A, “Methods and composition for the inhibition of cancer cells” (Washington State University Research Foundation, priority 1999, dated 2001)
Read-outs that look alike come from different tables or passages of the source.

How the values were obtained:
GI 101A cells = experiment: cells; format: cell-based, human
Description: (§1) . Cell lines and Culture.
(§2) Drugs and Chemical Reagents. […] . […] All other chemicals were reagent grade.
(§3) Drug Treatment and Survival Curves.
(§4) Pharmacol. 28:370-376 (1991). […] .
(§5) Drug Combinations and Data Analysis. […] . Pharmacol. (in press, 1997). […] Enzyme Regul. […] Enzyme Regul. 22:27-55 (1984).
(§6) . […] Enzyme Regul. 22:27-55 (1984).

MDA-231 cells = experiment: cells; format: cell-based, human
Description: as §1, §2, §3, §4, §5, §6

HMEC/E6 (p53-) = experiment: Crystal violet staining growth inhibition assay, median effect analysis; format: cell-based; conditions: Homo sapiens, 24 hr treatment
Description: Cytotoxicity and Bromodeoxyuridine incorporation assays. […] Enzyme Regul.

[1] = UCN-01 pharmacokinetics in rats, effect of human AGP; format: in vivo, male Wistar rats; conditions: for half-life / clearance / Vd: 10 mg/kg; for half-life: range over the two groups (without and with 10 mg human AGP); for clearance: read-out: total body clearance (converted); for Vd: read-out: volume of distribution during the elimination phase
Description: Many basic drugs tend to bind in variable degrees to AGP (Knowlton, K. et al., "Bcl-2 slows in vitro breast cancer growth despite its antiapoptotic effect," J. Surg. Res. 76:22-26 (1998)). […] Thus monitoring changes in the pharmacokinetic drug concentrations in these pathological conditions is extremely important, since dosage adjustment would be considered. For our drug combination, this binding is of a crucial consequence since the attainable plasma and tumor concentrations may be questionable and plasma protein displacement interaction may occur and can lead to undesirable side effects. Thus the role of human α1 -acid glycoprotein (AGP) binding on UCN-01 disposition was determined. In this example, two groups of rats were prepared by cannulating the femoral vein and artery. The first group (n=6) received UCN-01 (10 mg/kg i.v.) by slow infusion over 1 min., while the second group (n=5) received UCN-01+10 mg human α1 -acid glycoprotein. Plasma samples were obtained over time (0-700 min), and were analyzed for UCN-01 by HPLC system (Shimazdu LC), detecting peaks using fluorescence detector (excitation=310 nm, emission=410).

[2] = Tissue distribution of UCN-01 in rats, effect of human AGP; format: in vivo, male Wistar rats; conditions: rat, iv, 10 mg/kg
Description: The role of human AGP binding on the tissue distribution of UCN-01. In this study, two groups of rats (n=3) were infused with bolus injection of either UCN-01 (10 mg/kg) or UCN-01+ human AGP (10 mg/kg +10 mg). On hour following drug administration, plasma samples as well as organ tissues (brain, muscle, kidneys, lungs, liver, heart and spleen) were collected. Tissues were digested and homogenized, protein was precipitated with cold ethanol/1% ascorbic acid, and the supernatant was extracted with chloroform. The organic phase was then dried under nitrogen, reconstituted in acetonitrile and analyzed by HPLC as mentioned above.

[3] = system: normal bovine venular endothelial cells (BVEC)
Description: Cell lines and Culture. […] Normal bovine venular endothelial cells (BVEC) were maintained in DMEM media (Gibco) supplemented with 1 mM sodium pyrovate (Gibco), and 20% bovine calf serum (Hyclone). Cell viability was determined using the trypan blue exclusion test. To ensure an exponential growth, cells were plated in fresh medium 24 h before each treatment.
Drug Treatment and Survival Curves. Cytotoxicity studies were initiated by plating 2×10^4 cells obtained from exponentially growing cultures in 24-well tissue culture plates (Coming-Costar, Cambridge Mass.) in the appropriate medium. Following 24 h incubation at 37° C., drugs were added to quadruplicate wells and incubated for 24 h, the wells were washed twice with prewarmed phosphate-buffered saline (PBS) and then incubated with drug-free medium for 2-3 doubling times.

[4] = 72- or 3-h infusion, NCI Phase I; cited from earlier work
[5] = system: α1 -acid glycoprotein (AGP); conditions: cited from earlier work
[6] = Death of animals injected with UCN-01; conditions: i.m., doses higher than 5 mg/kg
HMEC (p53+) = experiment: Crystal violet staining growth inhibition assay, median effect analysis; conditions: Homo sapiens, 24 h, read-out: IC50 HMEC (p53+)
MDA-231 (mutant p53) = experiment: as above; conditions: Homo sapiens, MDA-MB-231, 24 h, read-out: IC50 MDA-231 (p53-)
[7] = rat, plasma, iv, UCN-01 10 mg/kg i.v. + 10 mg human AGP
[8] = rat, plasma, iv, UCN-01 10 mg/kg i.v. alone

CN[C@@H]1C[C@H]2O[C@@](C)([C@@H]1OC)n1c3ccccc3c3c4c(c5c6ccccc6n2c5c31)C(=O)N[C@@H]4O [UCN-01, 7-hydroxystaurosporine]
enhancement of CPT cytotoxicity (GI 101A cells): about 30 fold
enhancement of CPT cytotoxicity (MDA-231 cells): ~40 fold
IC50 (HMEC/E6 (p53-)): 1.4 nM
duration of peak plasma concentration >100 nM ([1]; 10 mg/kg i.v., presence of human AGP): up to 300 min
half-life ([1]; rat, plasma, iv, 10 mg/kg i.v., read-out: t1/2α): 0.183 to 0.85 h
half-life ([1]; rat, plasma, iv, 10 mg/kg i.v., read-out: t1/2β): 6.65 to 6.95 h
clearance [1, 7]: 1.5 mL/min
Vd [1, 7]: 1.7 L/kg
clearance [1, 8]: 4.33 mL/min
Vd [1, 8]: 6.8 L/kg
Cmax ([1]; rat, plasma, iv, 10 mg/kg i.v., presence of human AGP, read-out: peak plasma concentration): > 100 nM
Kp at 1 h ([2]; all tissues, UCN-01, 1 h, read-out: tissue:plasma ratios, all tissues): 10 to 1190
concentration at 1 h ([2]; brain, brain, UCN-01 10 mg/kg alone, 1 h, read-out: tissue concentration): 2450 ± 495 ng/g
Kp at 1 h ([2]; brain, brain, UCN-01 + human AGP, 1 h, read-out: Tissue/Plasma ratio): 0.6 ± 0.33
concentration at 1 h ([2]; brain, brain, UCN-01 + human AGP, 1 h, read-out: tissue concentration): 1720 ± 78.4 ng/g
Kp at 1 h ([2]; brain, brain, UCN-01 alone, 1 h, read-out: Tissue/Plasma ratio): 10.5 ± 1.9
concentration at 1 h ([2]; heart, heart, UCN-01 10 mg/kg alone, 1 h, read-out: tissue concentration): 19900 ± 9940 ng/g
Kp at 1 h ([2]; heart, heart, UCN-01 + human AGP, 1 h, read-out: Tissue/Plasma ratio): 3.5 ± 1.7
concentration at 1 h ([2]; heart, heart, UCN-01 + human AGP, 1 h, read-out: tissue concentration): 10100 ± 4900 ng/g
Kp at 1 h ([2]; heart, heart, UCN-01 alone, 1 h, read-out: Tissue/Plasma ratio): 86.8 ± 41.7
concentration at 1 h ([2]; kidney, kidney, UCN-01 10 mg/kg alone, 1 h, read-out: tissue concentration): 73200 ± 3050 ng/g
Kp at 1 h ([2]; kidney, kidney, UCN-01 + human AGP, 1 h, read-out: Tissue/Plasma ratio): 14 ± 5.6
concentration at 1 h ([2]; kidney, kidney, UCN-01 + human AGP, 1 h, read-out: tissue concentration): 39400 ± 8510 ng/g
Kp at 1 h ([2]; kidney, kidney, UCN-01 alone, 1 h, read-out: Tissue/Plasma ratio): 298 ± 40
concentration at 1 h ([2]; liver, liver, UCN-01 10 mg/kg alone, 1 h, read-out: tissue concentration): 42900 ± 3210 ng/g
Kp at 1 h ([2]; liver, liver, UCN-01 + human AGP, 1 h, read-out: Tissue/Plasma ratio): 11.3 ± 1.34
concentration at 1 h ([2]; liver, liver, UCN-01 + human AGP, 1 h, read-out: tissue concentration): 30100 ± 2530 ng/g
Kp at 1 h ([2]; liver, liver, UCN-01 alone, 1 h, read-out: Tissue/Plasma ratio): 189 ± 131
concentration at 1 h ([2]; lung, lung, UCN-01 10 mg/kg alone, 1 h, read-out: tissue concentration): 279000 ± 19600 ng/g
Kp at 1 h ([2]; lung, lung, UCN-01 + human AGP, 1 h, read-out: Tissue/Plasma ratio): 53.6
concentration at 1 h ([2]; lung, lung, UCN-01 + human AGP, 1 h, read-out: tissue concentration): 141000 ± 12000 ng/g
Kp at 1 h ([2]; lung, lung, UCN-01 alone, 1 h, read-out: Tissue/Plasma ratio): 1190 ± 775
concentration at 1 h ([2]; muscle, muscle, UCN-01 10 mg/kg alone, 1 h, read-out: tissue concentration): 11900 ± 783 ng/g
Kp at 1 h ([2]; muscle, muscle, UCN-01 + human AGP, 1 h, read-out: Tissue/Plasma ratio): 2.27 ± 1.11
concentration at 1 h ([2]; muscle, muscle, UCN-01 + human AGP, 1 h, read-out: tissue concentration): 6590 ± 3060 ng/g
Kp at 1 h ([2]; muscle, muscle, UCN-01 alone, 1 h, read-out: Tissue/Plasma ratio): 60 ± 5.48
concentration at 1 h ([2]; plasma, plasma, UCN-01 10 mg/kg + human AGP 10 mg, 1 h, mean ± SD, n=3, read-out: plasma concentration): 2960 ± 250 ng/mL
concentration at 1 h ([2]; plasma, plasma, UCN-01 10 mg/kg alone, 1 h, mean ± SD, n=3, read-out: plasma concentration): 240 ± 35 ng/mL
concentration at 1 h ([2]; spleen, spleen, UCN-01 10 mg/kg alone, 1 h, read-out: tissue concentration): 74900 ± 5170 ng/g
Kp at 1 h ([2]; spleen, spleen, UCN-01 + human AGP, 1 h, read-out: Tissue/Plasma ratio): 19.6 ± 14.7
concentration at 1 h ([2]; spleen, spleen, UCN-01 + human AGP, 1 h, read-out: tissue concentration): 53300 ± 3120 ng/g
Kp at 1 h ([2]; spleen, spleen, UCN-01 alone, 1 h, read-out: Tissue/Plasma ratio): 326 ± 208
enhancement of CPT-induced cytotoxicity [3]: no enhancement of CPT-induced cytotoxicity
distribution volume [4]: small distribution volume
half-life [4]: long half-life
plasma concentrations [4]: high plasma concentrations
systemic clearance [4]: Extremely low systemic clearance
binding to α1-acid glycoprotein [5]: high affinity binding
death of animals [6]: Death of animals injected with doses higher than 5 mg/kg was observed
IC50 (HMEC (p53+)): 0.07 nM
IC50 (MDA-231 (mutant p53)): 49.6 nM
